In patent publication US20060228754A1 (priority 1998, published 2006):

Columns and labels:
cholera toxin B subunit [1] = target: T1, cholera toxin B subunit (Vibrio cholerae serotype O1, UniProt P01556); format: binding
cholera toxin B subunit [2] = target: T1, cholera toxin B subunit; conditions: cited from earlier work
L-selectin = target: T2, L-selectin (Homo sapiens, UniProt P14151); conditions: cited from earlier work
T2 sequence (P14151 39-372): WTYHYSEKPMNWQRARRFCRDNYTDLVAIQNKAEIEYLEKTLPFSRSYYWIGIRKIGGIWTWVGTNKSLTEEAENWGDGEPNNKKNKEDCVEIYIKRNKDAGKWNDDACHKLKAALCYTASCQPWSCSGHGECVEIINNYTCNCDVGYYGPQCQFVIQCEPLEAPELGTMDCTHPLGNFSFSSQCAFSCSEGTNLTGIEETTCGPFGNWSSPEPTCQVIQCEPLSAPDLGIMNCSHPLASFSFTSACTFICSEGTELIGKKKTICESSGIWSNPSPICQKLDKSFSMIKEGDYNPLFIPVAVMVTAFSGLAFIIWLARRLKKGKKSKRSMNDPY

human α-thrombin = target: T3, human α-thrombin (Homo sapiens, UniProt P00734); conditions: affinity label; cited from earlier work
T3 construct: screened against immobilized human α-thrombin; purchased Sigma Chemical Co

T1 sequence (P01556 22-124 limits assumed): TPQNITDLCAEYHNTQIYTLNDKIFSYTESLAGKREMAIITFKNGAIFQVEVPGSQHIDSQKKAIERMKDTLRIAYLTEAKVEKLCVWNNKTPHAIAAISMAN

COC(=O)CCCCCCCCOC1OC(COC2OC(CO)C(O)C(O)C2O)C(O)C(OC2OC(CO)C(O)C(O)C2O)C1O (stereo not drawn) [compound 3, αMan(1-3)[αMan(1-6)]βMan-OGr]
break through (in words) (cholera toxin B subunit [1]): broke through in the void volume

CC(=O)N[C@H]1[C@H](O[C@@H]2[C@H](O[C@]3(C(=O)O)C[C@H](O)[C@@H](NC(C)=O)[C@H]([C@H](O)[C@H](O)CO)O3)[C@@H](O)[C@H](O[C@H]3[C@H](O)[C@@H](O)[C@H](O)O[C@@H]3CO)O[C@@H]2CO)O[C@H](CO)[C@H](O)[C@@H]1O[C@@H]1O[C@H](CO)[C@H](O)[C@H](O)[C@H]1O [compound 7, GM1 oligosaccharide]
break through volume (cholera toxin B subunit [1]): ~300 µL
Kd (cholera toxin B subunit [2]): ~100 nM

CC(=O)NC1C(O)CC(OCCOC2OC(CO)C(O)C(OC3OC(CO)C(O)C(O)C3O)C2NC(C)=O)(C(=O)O)OC1C(O)C(O)CO (stereo not drawn) [compound 8, βGal(1-3)βGalNAc(1-)-OCH2CH2O-(-2)αNeu5Ac]
break through time (cholera toxin B subunit [1]): about 11 min

O=P(O)(O)O[C@H]1[C@H](OP(=O)(O)O)[C@@H](OP(=O)(O)O)[C@H](OP(=O)(O)O)[C@@H](OP(=O)(O)O)[C@H]1OP(=O)(O)O [phytic acid]
Kd (L-selectin): 1000 nM

fPR-chloromethyl ketone
Kd (human α-thrombin): ~50 nM
